Measurements from the NIST ThermoML archive (doi:10.1016/j.jct.2015.08.013).

Assay: xn = mol fraction of the nth substance listed
Settings: 100 kPa, Liquid; for mass density: Vibrating tube method; for viscosity: Capillary tube (Ostwald / Ubbelohde) method

CC1COC(=O)O1 (centres undefined) [4-methyl-1,3-dioxolan-2-one] + CN1CCCC1=O
Settings	mass density [kg/m3]	viscosity [mPa·s]
293.15 K, x2 = 0	1204.81	–
293.15 K, x2 = 0.0523	1194.07	–
293.15 K, x2 = 0.1021	1184.1	–
293.15 K, x2 = 0.1995	1165.18	–
293.15 K, x2 = 0.2987	1146.67	–
293.15 K, x2 = 0.4003	1128.44	–
293.15 K, x2 = 0.5164	1108.38	–
293.15 K, x2 = 0.6011	1094.3	–
293.15 K, x2 = 0.6989	1078.57	–
293.15 K, x2 = 0.7989	1062.97	–
293.15 K, x2 = 0.9003	1047.58	–
293.15 K, x2 = 0.9506	1040.04	–
298.15 K, x2 = 0	1199.02	2.52
298.15 K, x2 = 0.0523	1188.38	–
298.15 K, x2 = 0.1021	1178.51	–
298.15 K, x2 = 0.114	–	2.391
298.15 K, x2 = 0.1995	1159.73	–
298.15 K, x2 = 0.2013	–	2.294
298.15 K, x2 = 0.2987	1141.4	–
298.15 K, x2 = 0.3347	–	2.158
298.15 K, x2 = 0.389	–	2.103
298.15 K, x2 = 0.4003	1123.3	–
298.15 K, x2 = 0.5	–	2.003
298.15 K, x2 = 0.5164	1103.36	–
298.15 K, x2 = 0.597	–	1.926
298.15 K, x2 = 0.6011	1089.39	–
298.15 K, x2 = 0.6989	1073.78	–
298.15 K, x2 = 0.709	–	1.845
298.15 K, x2 = 0.7891	–	1.796
298.15 K, x2 = 0.7989	1058.3	–
298.15 K, x2 = 0.8985	–	1.732
298.15 K, x2 = 0.9003	1043	–
298.15 K, x2 = 0.9506	1035.5	–
303.15 K, x2 = 0	1194	2.27
303.15 K, x2 = 0.0523	1183.42	–
303.15 K, x2 = 0.1021	1173.58	–
303.15 K, x2 = 0.114	–	2.157
303.15 K, x2 = 0.1995	1154.87	–
303.15 K, x2 = 0.2013	–	2.076
303.15 K, x2 = 0.2987	1136.58	–
303.15 K, x2 = 0.3347	–	1.957
303.15 K, x2 = 0.389	–	1.908
303.15 K, x2 = 0.4003	1118.52	–
303.15 K, x2 = 0.5	–	1.821
303.15 K, x2 = 0.5164	1098.63	–
303.15 K, x2 = 0.597	–	1.754
303.15 K, x2 = 0.6011	1084.68	–
303.15 K, x2 = 0.6989	1069.12	–
303.15 K, x2 = 0.709	–	1.685
303.15 K, x2 = 0.7891	–	1.641
303.15 K, x2 = 0.7989	1053.68	–
303.15 K, x2 = 0.8985	–	1.585
303.15 K, x2 = 0.9003	1038.41	–
303.15 K, x2 = 0.9506	1030.92	–
308.15 K, x2 = 0	1188.57	2.08
308.15 K, x2 = 0.0523	1178.1	–
308.15 K, x2 = 0.1021	1168.35	–
308.15 K, x2 = 0.114	–	1.988
308.15 K, x2 = 0.1995	1149.78	–
308.15 K, x2 = 0.2013	–	1.916
308.15 K, x2 = 0.2987	1131.63	–
308.15 K, x2 = 0.3347	–	1.81
308.15 K, x2 = 0.389	–	1.767
308.15 K, x2 = 0.4003	1113.71	–
308.15 K, x2 = 0.5	–	1.688
308.15 K, x2 = 0.5164	1093.99	–
308.15 K, x2 = 0.597	–	1.628
308.15 K, x2 = 0.6011	1080.16	–
308.15 K, x2 = 0.6989	1064.71	–
308.15 K, x2 = 0.709	–	1.568
308.15 K, x2 = 0.7891	–	1.527
308.15 K, x2 = 0.7989	1049.38	–
308.15 K, x2 = 0.8985	–	1.475
308.15 K, x2 = 0.9003	1034.2	–
308.15 K, x2 = 0.9506	1026.76	–
313.15 K, x2 = 0	1183.11	1.91
313.15 K, x2 = 0.0523	1172.69	–
313.15 K, x2 = 0.1021	1162.99	–
313.15 K, x2 = 0.114	–	1.828
313.15 K, x2 = 0.1995	1144.5	–
313.15 K, x2 = 0.2013	–	1.765
313.15 K, x2 = 0.2987	1126.42	–
313.15 K, x2 = 0.3347	–	1.673
313.15 K, x2 = 0.389	–	1.636
313.15 K, x2 = 0.4003	1108.58	–
313.15 K, x2 = 0.5	–	1.568
313.15 K, x2 = 0.5164	1088.95	–
313.15 K, x2 = 0.597	–	1.516
313.15 K, x2 = 0.6011	1075.18	–
313.15 K, x2 = 0.6989	1059.78	–
313.15 K, x2 = 0.709	–	1.461
313.15 K, x2 = 0.7891	–	1.426
313.15 K, x2 = 0.7989	1044.52	–
313.15 K, x2 = 0.8985	–	1.379
313.15 K, x2 = 0.9003	1029.43	–
313.15 K, x2 = 0.9506	1022.03	–
318.15 K, x2 = 0	1177.55	1.75
318.15 K, x2 = 0.0523	1167.21	–
318.15 K, x2 = 0.1021	1157.58	–
318.15 K, x2 = 0.114	–	1.682
318.15 K, x2 = 0.1995	1139.21	–
318.15 K, x2 = 0.2013	–	1.627
318.15 K, x2 = 0.2987	1121.25	–
318.15 K, x2 = 0.3347	–	1.545
318.15 K, x2 = 0.389	–	1.513
318.15 K, x2 = 0.4003	1103.52	–
318.15 K, x2 = 0.5	–	1.453
318.15 K, x2 = 0.5164	1084	–
318.15 K, x2 = 0.597	–	1.407
318.15 K, x2 = 0.6011	1070.31	–
318.15 K, x2 = 0.6989	1054.99	–
318.15 K, x2 = 0.709	–	1.359
318.15 K, x2 = 0.7891	–	1.328
318.15 K, x2 = 0.7989	1039.81	–
318.15 K, x2 = 0.8985	–	1.286
318.15 K, x2 = 0.9003	1024.81	–
318.15 K, x2 = 0.9506	1017.45	–
323.15 K, x2 = 0	1171.96	1.62
323.15 K, x2 = 0.0523	1161.72	–
323.15 K, x2 = 0.1021	1152.17	–
323.15 K, x2 = 0.114	–	1.56
323.15 K, x2 = 0.1995	1133.96	–
323.15 K, x2 = 0.2013	–	1.513
323.15 K, x2 = 0.2987	1116.14	–
323.15 K, x2 = 0.3347	–	1.443
323.15 K, x2 = 0.389	–	1.414
323.15 K, x2 = 0.4003	1098.55	–
323.15 K, x2 = 0.5	–	1.361
323.15 K, x2 = 0.5164	1079.17	–
323.15 K, x2 = 0.597	–	1.32
323.15 K, x2 = 0.6011	1065.56	–
323.15 K, x2 = 0.6989	1050.38	–
323.15 K, x2 = 0.709	–	1.278
323.15 K, x2 = 0.7891	–	1.25
323.15 K, x2 = 0.7989	1035.3	–
323.15 K, x2 = 0.8985	–	1.213
323.15 K, x2 = 0.9003	1020.41	–
323.15 K, x2 = 0.9506	1013.09	–
